The results in this text go back to BindingDB's records for doi:10.1111/j.1476-5381.1995.tb16628.x (Syntex Discovery Research, 1995).

SMILES strings stand for the structures. Where “and” joins values, the source holds several entries; their conditions need not be identical. Identical values can stand only once.

Assay [1] has as its target T1, Alpha-2A adrenergic receptor [16-465] (Rattus norvegicus, UniProt P22909).
T1 construct: 16-465
T1 sequence (P22909 whole entry): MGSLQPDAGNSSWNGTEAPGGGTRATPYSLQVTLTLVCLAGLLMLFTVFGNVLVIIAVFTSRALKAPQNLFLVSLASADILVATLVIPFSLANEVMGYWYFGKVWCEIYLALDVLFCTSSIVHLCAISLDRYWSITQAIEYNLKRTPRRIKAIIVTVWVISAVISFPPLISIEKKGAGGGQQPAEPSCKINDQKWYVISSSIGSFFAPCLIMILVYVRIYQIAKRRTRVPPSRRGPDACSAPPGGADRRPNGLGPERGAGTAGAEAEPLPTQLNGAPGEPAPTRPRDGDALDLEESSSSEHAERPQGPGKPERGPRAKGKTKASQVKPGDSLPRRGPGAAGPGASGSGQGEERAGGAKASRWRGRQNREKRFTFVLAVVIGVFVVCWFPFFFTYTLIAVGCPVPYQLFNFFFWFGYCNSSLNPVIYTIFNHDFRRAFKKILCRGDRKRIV

The target of assay [2] is 5-hydroxytryptamine receptor 2A (Rattus norvegicus, UniProt P14842).
Chain of 5-hydroxytryptamine receptor 2A (P14842 whole entry): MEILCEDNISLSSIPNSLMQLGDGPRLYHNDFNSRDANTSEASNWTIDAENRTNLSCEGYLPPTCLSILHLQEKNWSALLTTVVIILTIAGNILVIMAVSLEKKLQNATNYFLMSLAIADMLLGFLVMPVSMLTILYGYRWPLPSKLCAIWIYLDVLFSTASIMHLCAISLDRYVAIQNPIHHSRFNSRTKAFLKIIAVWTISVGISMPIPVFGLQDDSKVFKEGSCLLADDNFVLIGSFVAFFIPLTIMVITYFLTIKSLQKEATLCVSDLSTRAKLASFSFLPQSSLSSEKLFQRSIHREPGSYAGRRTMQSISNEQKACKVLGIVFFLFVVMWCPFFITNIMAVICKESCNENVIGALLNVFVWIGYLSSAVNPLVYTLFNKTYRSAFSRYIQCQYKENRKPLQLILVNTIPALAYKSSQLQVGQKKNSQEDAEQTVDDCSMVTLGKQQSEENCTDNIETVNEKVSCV
Assay [3] concerns the target T2, Alpha-1B adrenergic receptor (Rattus norvegicus, UniProt P15823).
T2 sequence (P15823 whole entry): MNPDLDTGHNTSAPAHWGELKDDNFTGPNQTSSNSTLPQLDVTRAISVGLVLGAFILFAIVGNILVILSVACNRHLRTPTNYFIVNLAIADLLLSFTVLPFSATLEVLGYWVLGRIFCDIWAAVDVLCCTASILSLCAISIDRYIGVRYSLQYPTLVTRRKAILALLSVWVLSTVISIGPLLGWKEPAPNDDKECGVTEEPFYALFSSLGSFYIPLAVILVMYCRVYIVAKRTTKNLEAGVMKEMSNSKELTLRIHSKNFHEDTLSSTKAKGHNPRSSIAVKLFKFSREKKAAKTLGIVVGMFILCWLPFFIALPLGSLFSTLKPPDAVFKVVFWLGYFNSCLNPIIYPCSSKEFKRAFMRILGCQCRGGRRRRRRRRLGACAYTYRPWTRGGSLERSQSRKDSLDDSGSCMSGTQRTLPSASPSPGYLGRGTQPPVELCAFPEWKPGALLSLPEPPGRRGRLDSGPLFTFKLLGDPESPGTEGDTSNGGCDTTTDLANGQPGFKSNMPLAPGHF

The target in assay [4] is Sigma non-opioid intracellular receptor 1 (Cavia porcellus, UniProt Q60492).
Chain of Sigma non-opioid intracellular receptor 1 (Q60492 whole entry): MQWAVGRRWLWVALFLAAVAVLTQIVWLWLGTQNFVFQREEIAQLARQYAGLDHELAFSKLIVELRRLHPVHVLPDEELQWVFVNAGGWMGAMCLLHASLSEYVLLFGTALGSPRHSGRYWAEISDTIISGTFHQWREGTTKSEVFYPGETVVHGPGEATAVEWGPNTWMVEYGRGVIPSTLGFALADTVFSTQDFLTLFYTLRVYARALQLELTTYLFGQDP
The target of assay [5] is Beta-1 adrenergic receptor (Rattus norvegicus, UniProt P18090).
Chain of Beta-1 adrenergic receptor (P18090 whole entry): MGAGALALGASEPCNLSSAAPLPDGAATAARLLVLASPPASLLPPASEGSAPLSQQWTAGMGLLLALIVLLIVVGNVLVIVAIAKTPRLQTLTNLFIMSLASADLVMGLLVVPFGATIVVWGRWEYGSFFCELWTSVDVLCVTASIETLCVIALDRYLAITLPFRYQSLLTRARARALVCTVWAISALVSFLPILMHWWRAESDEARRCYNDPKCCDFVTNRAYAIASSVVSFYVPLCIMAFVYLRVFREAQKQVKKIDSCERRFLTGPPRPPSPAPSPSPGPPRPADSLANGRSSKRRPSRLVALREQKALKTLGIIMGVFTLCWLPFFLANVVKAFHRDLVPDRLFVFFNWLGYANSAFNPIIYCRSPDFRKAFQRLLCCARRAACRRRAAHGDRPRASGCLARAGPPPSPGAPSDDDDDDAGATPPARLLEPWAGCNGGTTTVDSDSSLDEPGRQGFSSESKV
Assay [6] deals with T3, Alpha-1A adrenergic receptor (Rattus norvegicus, UniProt P43140).
T3 sequence (P43140 whole entry): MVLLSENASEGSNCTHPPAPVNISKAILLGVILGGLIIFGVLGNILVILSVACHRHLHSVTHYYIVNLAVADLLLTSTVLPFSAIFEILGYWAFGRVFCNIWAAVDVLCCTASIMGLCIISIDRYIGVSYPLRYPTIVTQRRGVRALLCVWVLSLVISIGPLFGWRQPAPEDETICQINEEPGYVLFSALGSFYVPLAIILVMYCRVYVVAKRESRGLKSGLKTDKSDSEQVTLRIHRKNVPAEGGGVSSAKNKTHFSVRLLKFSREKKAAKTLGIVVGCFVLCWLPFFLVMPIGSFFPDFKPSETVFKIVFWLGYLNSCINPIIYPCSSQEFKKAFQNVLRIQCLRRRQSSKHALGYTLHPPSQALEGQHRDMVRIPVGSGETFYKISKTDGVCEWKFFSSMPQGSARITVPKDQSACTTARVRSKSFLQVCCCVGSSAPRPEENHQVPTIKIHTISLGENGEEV

Assay [7] deals with T4, 5-hydroxytryptamine receptor 2C (Rattus norvegicus, UniProt P08909).
T4 sequence (P08909 whole entry): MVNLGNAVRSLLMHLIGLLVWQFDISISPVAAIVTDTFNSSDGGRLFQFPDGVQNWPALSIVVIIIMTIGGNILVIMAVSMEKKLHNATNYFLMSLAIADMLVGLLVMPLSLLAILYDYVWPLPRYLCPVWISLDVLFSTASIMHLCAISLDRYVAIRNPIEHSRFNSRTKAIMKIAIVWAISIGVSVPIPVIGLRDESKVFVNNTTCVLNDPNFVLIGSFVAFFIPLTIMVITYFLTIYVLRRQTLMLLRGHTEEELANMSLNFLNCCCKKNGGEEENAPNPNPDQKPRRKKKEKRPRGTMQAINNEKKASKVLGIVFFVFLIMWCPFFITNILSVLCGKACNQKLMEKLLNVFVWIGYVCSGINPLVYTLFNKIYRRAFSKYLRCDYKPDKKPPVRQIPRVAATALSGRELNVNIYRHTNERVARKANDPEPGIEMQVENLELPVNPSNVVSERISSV

The target in assay [8] is T5, 5-hydroxytryptamine receptor 3A (Rattus norvegicus, UniProt P35563).
T5 sequence (P35563 whole entry): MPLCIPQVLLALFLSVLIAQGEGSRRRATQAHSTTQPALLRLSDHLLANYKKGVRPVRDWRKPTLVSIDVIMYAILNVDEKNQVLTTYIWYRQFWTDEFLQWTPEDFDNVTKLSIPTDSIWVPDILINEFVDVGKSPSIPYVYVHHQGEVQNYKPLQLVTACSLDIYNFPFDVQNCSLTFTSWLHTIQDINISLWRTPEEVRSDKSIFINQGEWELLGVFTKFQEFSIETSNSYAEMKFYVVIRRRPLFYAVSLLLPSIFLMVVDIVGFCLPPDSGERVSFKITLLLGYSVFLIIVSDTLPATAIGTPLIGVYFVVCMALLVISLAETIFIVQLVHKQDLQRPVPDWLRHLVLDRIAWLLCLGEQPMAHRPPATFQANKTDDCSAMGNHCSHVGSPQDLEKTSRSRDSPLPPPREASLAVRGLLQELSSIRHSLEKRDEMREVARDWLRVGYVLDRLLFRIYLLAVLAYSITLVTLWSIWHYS

Assay [9] concerns the target 5-hydroxytryptamine receptor 4 (Cavia porcellus, UniProt O70528).
Assay [10] concerns the target T6, Alpha-2B adrenergic receptor (Rattus norvegicus, UniProt P19328).
T6 sequence (P19328 whole entry): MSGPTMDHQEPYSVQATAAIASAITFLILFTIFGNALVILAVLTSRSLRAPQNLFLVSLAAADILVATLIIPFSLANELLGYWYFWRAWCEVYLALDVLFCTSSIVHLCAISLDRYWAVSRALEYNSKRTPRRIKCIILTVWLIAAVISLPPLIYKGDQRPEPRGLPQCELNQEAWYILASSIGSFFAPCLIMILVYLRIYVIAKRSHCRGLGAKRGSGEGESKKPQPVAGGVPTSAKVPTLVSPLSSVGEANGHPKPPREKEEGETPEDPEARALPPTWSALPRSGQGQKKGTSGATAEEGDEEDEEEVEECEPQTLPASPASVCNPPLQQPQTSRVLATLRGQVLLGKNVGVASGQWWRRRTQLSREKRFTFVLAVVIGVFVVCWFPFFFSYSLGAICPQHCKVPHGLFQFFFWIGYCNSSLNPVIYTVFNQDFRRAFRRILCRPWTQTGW

The target of assay [11] is T7, Muscarinic acetylcholine receptor M2 (Rattus norvegicus, UniProt P10980).
T7 sequence (P10980 whole entry): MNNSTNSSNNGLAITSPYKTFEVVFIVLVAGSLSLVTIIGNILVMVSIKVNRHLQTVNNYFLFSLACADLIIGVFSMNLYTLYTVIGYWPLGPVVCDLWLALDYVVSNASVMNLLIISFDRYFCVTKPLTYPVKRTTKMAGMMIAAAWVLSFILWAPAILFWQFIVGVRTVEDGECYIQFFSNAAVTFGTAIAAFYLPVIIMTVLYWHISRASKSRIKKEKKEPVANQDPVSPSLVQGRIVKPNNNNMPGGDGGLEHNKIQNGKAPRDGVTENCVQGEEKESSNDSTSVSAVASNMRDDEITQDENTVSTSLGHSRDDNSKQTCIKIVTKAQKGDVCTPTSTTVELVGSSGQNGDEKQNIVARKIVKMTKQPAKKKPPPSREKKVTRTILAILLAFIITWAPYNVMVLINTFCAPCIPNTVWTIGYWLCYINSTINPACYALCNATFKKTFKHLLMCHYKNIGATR

Assay [12] concerns the target T8, Muscarinic acetylcholine receptor M1 (Rattus norvegicus, UniProt P08482).
T8 sequence (P08482 whole entry): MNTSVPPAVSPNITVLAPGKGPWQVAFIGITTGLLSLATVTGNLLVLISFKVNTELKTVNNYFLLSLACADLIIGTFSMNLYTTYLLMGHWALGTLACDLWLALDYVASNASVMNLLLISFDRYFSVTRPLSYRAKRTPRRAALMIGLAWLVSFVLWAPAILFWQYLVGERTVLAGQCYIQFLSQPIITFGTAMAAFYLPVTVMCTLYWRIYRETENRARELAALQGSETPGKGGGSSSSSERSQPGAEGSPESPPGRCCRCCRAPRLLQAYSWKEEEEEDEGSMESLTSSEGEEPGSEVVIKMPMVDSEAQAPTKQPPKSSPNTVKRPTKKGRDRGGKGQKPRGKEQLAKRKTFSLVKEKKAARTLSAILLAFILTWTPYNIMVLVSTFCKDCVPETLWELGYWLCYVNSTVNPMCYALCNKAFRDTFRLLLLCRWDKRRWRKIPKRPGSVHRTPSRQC

For assay [13], the target named is D(1A) dopamine receptor (Macaca mulatta, UniProt O77680).
Chain of D(1A) dopamine receptor (O77680 whole entry): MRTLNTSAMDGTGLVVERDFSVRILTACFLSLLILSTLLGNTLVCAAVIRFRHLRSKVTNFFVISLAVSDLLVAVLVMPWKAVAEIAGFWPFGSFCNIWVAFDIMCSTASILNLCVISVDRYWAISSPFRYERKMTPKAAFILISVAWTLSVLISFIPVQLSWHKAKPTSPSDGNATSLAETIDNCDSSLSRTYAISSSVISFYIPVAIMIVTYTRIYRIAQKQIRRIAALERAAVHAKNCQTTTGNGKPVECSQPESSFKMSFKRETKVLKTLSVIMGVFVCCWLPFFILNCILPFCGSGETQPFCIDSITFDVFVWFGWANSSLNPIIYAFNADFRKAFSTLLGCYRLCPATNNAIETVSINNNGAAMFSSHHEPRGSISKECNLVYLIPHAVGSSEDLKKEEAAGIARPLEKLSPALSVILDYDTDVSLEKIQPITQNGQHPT
Assay [14] deals with D(2) dopamine receptor (Sus scrofa, UniProt F1SM69).
Chain of D(2) dopamine receptor (F1SM69 whole entry): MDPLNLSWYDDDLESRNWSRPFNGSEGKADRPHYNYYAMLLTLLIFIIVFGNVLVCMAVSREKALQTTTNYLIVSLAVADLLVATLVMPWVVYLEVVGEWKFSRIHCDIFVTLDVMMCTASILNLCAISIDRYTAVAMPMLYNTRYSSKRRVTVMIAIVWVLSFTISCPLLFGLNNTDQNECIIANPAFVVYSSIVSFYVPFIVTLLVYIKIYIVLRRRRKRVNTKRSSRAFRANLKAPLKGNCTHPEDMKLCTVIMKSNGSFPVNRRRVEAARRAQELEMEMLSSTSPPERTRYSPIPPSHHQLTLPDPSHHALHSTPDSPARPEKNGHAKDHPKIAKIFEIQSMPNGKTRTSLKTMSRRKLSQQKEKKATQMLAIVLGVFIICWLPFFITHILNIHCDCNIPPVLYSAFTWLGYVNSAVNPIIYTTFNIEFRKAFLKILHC
Assay [15] deals with Beta-2 adrenergic receptor (Rattus norvegicus, UniProt P10608).
Chain of Beta-2 adrenergic receptor (P10608 whole entry): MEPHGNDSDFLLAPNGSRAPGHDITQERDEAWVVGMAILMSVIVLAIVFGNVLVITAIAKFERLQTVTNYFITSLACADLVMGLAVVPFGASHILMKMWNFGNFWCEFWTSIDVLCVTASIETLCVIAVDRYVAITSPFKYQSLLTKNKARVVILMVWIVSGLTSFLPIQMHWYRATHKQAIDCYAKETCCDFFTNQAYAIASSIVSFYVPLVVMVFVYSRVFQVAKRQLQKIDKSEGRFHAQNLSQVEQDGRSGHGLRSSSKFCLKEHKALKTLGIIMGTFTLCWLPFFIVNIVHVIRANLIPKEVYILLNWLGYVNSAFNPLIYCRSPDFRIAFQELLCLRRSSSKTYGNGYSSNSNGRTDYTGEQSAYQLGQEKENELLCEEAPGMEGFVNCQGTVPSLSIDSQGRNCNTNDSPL
Assay [16] concerns the target T9, 5-hydroxytryptamine receptor 1A (Rattus norvegicus, UniProt P19327).
T9 sequence (P19327 whole entry): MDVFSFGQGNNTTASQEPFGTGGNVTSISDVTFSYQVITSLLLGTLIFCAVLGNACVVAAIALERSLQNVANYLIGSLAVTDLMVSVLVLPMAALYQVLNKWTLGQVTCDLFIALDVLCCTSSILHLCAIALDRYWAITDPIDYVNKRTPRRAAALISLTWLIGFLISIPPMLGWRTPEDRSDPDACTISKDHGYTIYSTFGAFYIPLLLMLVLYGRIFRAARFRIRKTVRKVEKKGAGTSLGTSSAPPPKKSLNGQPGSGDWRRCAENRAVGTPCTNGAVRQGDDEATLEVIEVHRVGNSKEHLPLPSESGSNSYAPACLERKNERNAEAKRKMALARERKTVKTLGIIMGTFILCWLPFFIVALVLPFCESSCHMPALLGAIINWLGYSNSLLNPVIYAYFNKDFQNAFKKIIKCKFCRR

Chain of 5-hydroxytryptamine receptor 4 (O70528 whole entry): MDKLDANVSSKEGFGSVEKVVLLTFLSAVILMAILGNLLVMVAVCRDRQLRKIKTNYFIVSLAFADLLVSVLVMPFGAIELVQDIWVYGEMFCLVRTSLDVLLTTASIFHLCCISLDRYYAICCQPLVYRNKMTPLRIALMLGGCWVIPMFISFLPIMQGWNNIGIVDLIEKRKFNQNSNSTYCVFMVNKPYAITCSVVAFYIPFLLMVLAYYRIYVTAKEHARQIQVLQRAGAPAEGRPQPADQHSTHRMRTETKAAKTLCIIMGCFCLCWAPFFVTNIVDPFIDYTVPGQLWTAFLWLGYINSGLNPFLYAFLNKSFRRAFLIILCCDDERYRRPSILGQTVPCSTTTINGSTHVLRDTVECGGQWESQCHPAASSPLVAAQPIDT

Turning to `CCCCN1CCC(CCC(=O)c2cc(Cl)c(N)cc2OC)CC1` [CAS_183782], the Ki (as a rule, a measure of affinity in units of concentration, obtained from inhibition or displacement) in [1] was over 10 µM; in [2], 0.501 µM; in assay [3] it was 1.26 µM; in [4] it was 0.00125 µM and 0.01 µM; in assay [5] it was over 10 µM; in [6], 0.2 µM. Further, the Ki in assay [7] was 0.794 µM; in assay [8], 0.398 µM and 1.26 µM; in assay [9] it was 0.00199 µM; in assay [10], over 10 µM; in assay [11], 5.01 µM; in [12], 6.31 µM. Moreover, the inhibition constant (Ki) in assay [13], in assay [14] and in assay [15] was over 10 µM in each case.

Regarding `COc1cc(N)c(Cl)cc1C(=O)CCC1CCN(CCNS(C)(=O)=O)CC1` [CAS_133075], the inhibition constant (Ki) in assay [1] was over 10 µM; in [2], 1 µM; in [16] it was 2 µM; in assay [3], over 10 µM; in [4], 0.0126 µM and 0.0501 µM; in assay [5], over 10 µM. The Ki in assay [6] was 0.398 µM; in assay [7], 2 µM; in [8], 2.51 µM and 1.26 µM; in [9] it was 0.00158 µM; in assay [10], over 10 µM; in assay [11], over 10 µM. Moreover, the Ki in [12], in assay [13], in [14] and in assay [15] was over 10 µM throughout.
